Twelve compounds from ChEMBL document CHEMBL5241104, “Reactive metabolites of the anticonvulsant drugs and approaches to minimize the adverse drug reaction” (Eur J Med Chem, 2021) can be followed below.

The nature of series [1]: Protective index, ratio of TD50 for toxicity in Sprague-Dawley rat assessed as median toxicity dose at po administration upto 4 hrs by rotorod test to ED50 for anticonvulsant activity in Sprague-Dawley rat assessed as protection against maximal electroshock induced seizure at po administration upto 4 hrs. In kind it is organism-based. Conditions: in vivo, read-out: Ratio TD50/ED50. Background: In the rotarod test animals must keep their balance on a rotating rod.

Series [2] in a line: Toxicity in Sprague-Dawley rat assessed as median toxic dose at po administrated upto 4 hrs by rotorod test. In kind it is organism-based. The following applies: in vivo.
The test system of series [3] is Mus musculus. The experiment in a line: Anticonvulsant activity in Swiss mouse assessed as protection against Sc-PTZ induced seizure at ip administration. Type of series: functional.
Series [4] concerns Mus musculus. The experiment in a line: Anticonvulsant activity against 3-MP induced Swiss mouse seizure model assessed as inhibition of tonic seizures at 50 mg/kg,ip administration for 30 mins. Type of series: functional. Conditions: 0.5 h.
In series [5] the test system is Mus musculus. Put plainly: Anticonvulsant activity against 3-MP induced Swiss mouse seizure model assessed as inhibition of clonic seizures at 50 mg/kg,ip administration for 30 mins. In kind it is functional. The following applies: 0.5 h.
In series [6] the test system is Mus musculus. Put plainly: Anticonvulsant activity against bicuculline induced Swiss mouse seizure model assessed as inhibition of tonic seizures at 50 mg/kg,ip administration for 30 mins. Type of series: functional. Conditions: 0.5 h.
Series [7] concerns Mus musculus. The experiment in a line: Anticonvulsant activity against bicuculline induced Swiss mouse seizure model assessed as inhibition of clonic seizures at 50 mg/kg,ip administration for 30 mins. In kind it is functional. Conditions: 0.5 h.
The nature of series [8]: Neurotoxicity in Swiss mouse assessed as median toxicity dose at ip administration by rotorod test. Type of series: organism-based. Conditions: in vivo.
Series [9] in a line: Toxicity in bicuculline induced Swiss mouse seizure model assessed as death at 50 mg/kg,ip administration for 30 mins. In kind it is organism-based. Conditions: in vivo, read-out: Activity.
Series [10] in a line: Toxicity in 3-MP induced Swiss mouse seizure model assessed as death at 50 mg/kg,ip administration for 30 mins. In kind it is organism-based. Conditions: in vivo, read-out: Activity.
Series [11] concerns Rattus norvegicus. Put plainly: Anticonvulsant activity in Sprague-Dawley rat assessed as protection against maximal electroshock induced seizure at ip administration for 0.25 hrs. In kind it is functional. (Protection in the maximal electroshock model is a classic sign of anticonvulsant action.)
The subject of series [12] is Rattus norvegicus. Put plainly: Anticonvulsant activity in Sprague-Dawley rat assessed as protection against hippocampal kindling induced seizure at ip administration for 0.25 hrs. Type of series: functional.
The subject of series [13] is Rattus norvegicus. Put plainly: Anticonvulsant activity in Sprague-Dawley rat assessed as protection against maximal electroshock induced seizure at po administration. In kind it is functional.
In series [14] the test system is Rattus norvegicus. Put plainly: Anticonvulsant activity in rat assessed as protection against Sc-metrazol induced seizure at po administration. In kind it is functional.
Series [15] deals with Mus musculus. The experiment in a line: Anticonvulsant activity in mouse assessed as protection against Sc-metrazol induced seizure at po administration. Type of series: functional.
For series [16], the system named is Mus musculus. The experiment in a line: Anticonvulsant activity in Swiss albino mouse assessed as protection against PTZ induced seizure at ip administration for 30 mins. Type of series: functional. The following applies: 0.5 h.
Series [17] in a line: Toxicity in Swiss albino mouse assessed as median toxicity dose at ip administration. Type of series: organism-based. Conditions: in vivo.
Series [18] in a line: Protective index, ratio of TD50 for toxicity in Sprague-Dawley rat assessed as median toxicity dose at ip administration by rotorod test to ED50 for anticonvulsant activity in Sprague-Dawley rat assessed as protection against maximal electroshock induced seizure at ip administration. Type of series: organism-based. Conditions: in vivo, read-out: Ratio TD50/ED50.
Series [19] concerns Rattus norvegicus. Put plainly: Anticonvulsant activity in Sprague-Dawley rat assessed as protection against maximal electroshock induced seizure at po administrated for 30 mins. In kind it is functional. The following applies: 0.5 h.
Series [20] has as its system Rattus norvegicus. Put plainly: Anticonvulsant activity in Sprague-Dawley rat assessed as protection against Sc-Met induced seizure at po administrated for 30 mins. Type of series: functional. The following applies: 0.5 h.
Series [21] has as its system Mus musculus. The experiment in a line: Anticonvulsant activity in Albino mouse assessed as protection against Sc-PTZ induced seizure at ip administration for 30 mins. The following applies: 0.5 h. In kind it is functional.
In series [22] the test system is Mus musculus. The experiment in a line: Anticonvulsant activity in mouse assessed as protection against 6-Hz induced seizure at ip administration upto 2 hrs. In kind it is functional.
For series [23], the system named is Mus musculus. Put plainly: Anticonvulsant activity in mouse assessed as protection against maximal electroshock induced seizure at po administration. Type of series: functional.
Series [24] can be described thus: Protective index, ratio of TD50 for toxicity in rat assessed as median toxicity dose at po administration by rotorod test to ED50 for anticonvulsant activity in rat assessed as protection against maximal electroshock induced seizure at po administration. Type of series: organism-based. Conditions: in vivo, read-out: Ratio TD50/ED50.
The test system of series [25] is Rattus norvegicus. Put plainly: Anticonvulsant activity in rat assessed as protection against maximal electroshock induced seizure at po administration. Type of series: functional.
Series [26] in a line: Toxicity in CF-1 mouse assessed as median toxic dose at ip administrated upto 4 hrs. Type of series: organism-based. The following applies: in vivo.
Series [27] is described as follows: Protective index, ratio of TD50 for toxicity in CF-1 mouse assessed as median toxicity dose at ip administration upto 4 hrs by rotorod test to ED50 for anticonvulsant activity in CF-1 mouse assessed as protection against maximal electroshock induced seizure at ip administration upto 4 hrs. In kind it is organism-based. Conditions: in vivo, read-out: Ratio TD50/ED50.

Series [28] deals with Mus musculus. The experiment in a line: Anticonvulsant activity in CF-1 mouse assessed as protection against maximal electroshock induced seizure at ip administrated upto 4 hrs. In kind it is functional.

Turning to `CCOC(=O)C1C(=O)C=C(Nc2cc(C)on2)CC1C` (stereo not given), the selectivity ratio at 4 h in [1] was greater than 49.6. In addition, the TD50 (commonly the 50% point of the dose-response relation for the toxic effect studied) at 4 h in series [2] is greater than 500 mg/kg.
As to `CN1C(=O)CC(=O)N(C)c2cc(NCc3ccc(F)cc3)ccc21`, in series [3], the ED50 (in general, the dose that gives a 50% effect, or the effect in half of the subjects) is 68 mg/kg. For the same compound, the inhibition in vivo – broadly, the change of the read-out against control, counted positive when it falls – at 50 mg/kg amounted to 80% in series [4], 100% in [5], 100% in series [6] and 80% in series [7]. For the same compound, in series [8], the TD50 was 164 mg/kg. The figures for the mortality at 0.5 h in series [9] and in [10] were 70% and 20%, respectively.
On to `CCCC(CCC)C(=O)OCCN(C)C`, for which the ED50 in series [11] came to 73 mg/kg; in [12] it was 168 mg/kg.
With `O=C1NC(c2ccccc2)(C2CC2)C(=O)N1CN1CCN(c2ccccc2)CC1` (stereo not given), the ED50 in series [13] turned out to be 5.29 mg/kg.
For `CONC(=O)C1C(C)(C)C1(C)C`, the ED50 in series [14] was 35 mg/kg; in series [15], 74 mg/kg.
As to `CCCC(CCC)c1nnc(Nc2ccccc2)s1`, the ED50 in series [16] was determined as 187 mg/kg. Also, in series [17], the TD50 was determined as 419 mg/kg.
`CCCC(CCC)C(=O)NCCN(C)C`: in [11], the ED50 was found to be 38.6 mg/kg. The selectivity ratio in series [18] is 1.8.
`Cc1cc(C(=O)Nc2c(C)cccc2C)no1`: the ED50 in series [19] is 5.5 mg/kg; in series [20], greater than 250 mg/kg.
With `O=C1Nc2ccc(Cl)cc2C(c2ccccc2)=NC1/N=N/c1ccc([N+](=O)[O-])cc1` (stereo not given), the Activity in [21] is on record as 100%.
`CCCC(COC(=O)Nc1ccc(S(N)(=O)=O)cc1)C(C)CC` (stereo not given): the ED50 in [22] was 74 mg/kg.
Turning to `CC1(C)C(C(=O)NC(N)=O)C1(C)C` [2,2,3,3-TETRAMETHYLCYCLOPROPANECARBONYLUREA], the ED50 is 92 mg/kg in series [14], 90 mg/kg in series [23] and 29 mg/kg in series [25]. Moreover, the selectivity ratio in series [24] was 18.5.
With `CC1CC(Nc2ccon2)=CC(=O)C1C(=O)OC(C)(C)C` (stereo not given), the TD50 at 4 h in [26] was greater than 500 mg/kg. In series [27], the selectivity ratio at 4 h is greater than 17.8. The ED50 in [28] amounted to 28.1 mg/kg.
